Measurements reported in patent publication US20130196971A1, “FATTY ACID SYNTHASE INHIBITORS” (priority 2010, published 2013).

target: FAS (Homo sapiens, UniProt P49327); test: FAS Assay (Assay #1 residual NADPH detection or Assay #2 CoA detection with CPM dye); assay type: biochemical; settings: FAS inhibition, measured through Assay #1 or Assay #2; one experiment or average of multiple experiments
Protocol: FAS activity was measured through one of the two following assays.
Inhibition of FAS activity can be measured based on the detection of residual NADPH substrate after the FAS assay is quenched. This assay is run as a 10 μL endpoint assay in 384-well format, where the reaction contains 20 μM malonyl-CoA, 2 μM acetyl-CoA, 30 μM NADPH and 40 nM FAS in 50 mM sodium phosphate, pH 7.0. The assay is run by sequentially dispensing 5 μl of a malonyl-CoA solution, then enzyme solution (containing the acetyl-CoA, and NADPH) into a black, low volume assay plate (Greiner 784076) pre-dispensed with 100 nL compound solutions in DMSO. The reaction is incubated at ambient temperature for 60 minutes, then quenched with 5 μL of a developing solution composed of 90 μM resazurin, 0.3 IU/ml diaphorase in 50 mM sodium phosphate, pH 7.0. The developed reaction is read on a Molecular Devices Analyst or Acquest (or equivalent) plate reader using a 530 nm excitation wavelength filter, a 580 nm emission filter, and 561 nm dichroic filter. The test compounds are prepared in neat DMSO at a concentration of 10 mM. For inhibition curves, compounds are diluted using a three fold serial dilution and tested at 11 concentrations (e.g. 25 μM-0.42 nM). Curves are analysed using ActivityBase and XLfit, and results are expressed as pIC50 values.
Inhibition of FAS can also be quantified based on the detection of the CoA products with a thio-reactive coumarin dye. This assay is run as a 10 μL endpoint assay in 384-well format, where the reaction contains 20 μM malonyl-CoA, 20 μM acetyl-CoA, 40 μM NADPH and 2 nM FAS in 50 mM sodium phosphate, pH 7.0, and 0.04% Tween-20. The assay is run by adding 5 μL enzyme solution to a black, low volume assay plate (Greiner 784076) pre-dispensed with 100 nl compound solutions in DMSO. After 30 minutes, 5 μL substrate is added, and the reaction incubated at ambient temperature for an additional 60 minutes. The reaction is then quenched with 10 μL of 6M guanidine-HCl containing 50 μM CPM (7-diethylamino-3-(4′-maleimidylphenyl)-4-methylcoumarin (CPM; thio-reactive dye), and incubated for 30 minutes. The plate is read on an Envision (PerkinElmer) or equivalent plate reader using a 380 nm excitation wavelength filter, and a 486 nm emission filter. Data fitting and compound preparations are done as described above.

Sequence of FAS (P49327 whole entry): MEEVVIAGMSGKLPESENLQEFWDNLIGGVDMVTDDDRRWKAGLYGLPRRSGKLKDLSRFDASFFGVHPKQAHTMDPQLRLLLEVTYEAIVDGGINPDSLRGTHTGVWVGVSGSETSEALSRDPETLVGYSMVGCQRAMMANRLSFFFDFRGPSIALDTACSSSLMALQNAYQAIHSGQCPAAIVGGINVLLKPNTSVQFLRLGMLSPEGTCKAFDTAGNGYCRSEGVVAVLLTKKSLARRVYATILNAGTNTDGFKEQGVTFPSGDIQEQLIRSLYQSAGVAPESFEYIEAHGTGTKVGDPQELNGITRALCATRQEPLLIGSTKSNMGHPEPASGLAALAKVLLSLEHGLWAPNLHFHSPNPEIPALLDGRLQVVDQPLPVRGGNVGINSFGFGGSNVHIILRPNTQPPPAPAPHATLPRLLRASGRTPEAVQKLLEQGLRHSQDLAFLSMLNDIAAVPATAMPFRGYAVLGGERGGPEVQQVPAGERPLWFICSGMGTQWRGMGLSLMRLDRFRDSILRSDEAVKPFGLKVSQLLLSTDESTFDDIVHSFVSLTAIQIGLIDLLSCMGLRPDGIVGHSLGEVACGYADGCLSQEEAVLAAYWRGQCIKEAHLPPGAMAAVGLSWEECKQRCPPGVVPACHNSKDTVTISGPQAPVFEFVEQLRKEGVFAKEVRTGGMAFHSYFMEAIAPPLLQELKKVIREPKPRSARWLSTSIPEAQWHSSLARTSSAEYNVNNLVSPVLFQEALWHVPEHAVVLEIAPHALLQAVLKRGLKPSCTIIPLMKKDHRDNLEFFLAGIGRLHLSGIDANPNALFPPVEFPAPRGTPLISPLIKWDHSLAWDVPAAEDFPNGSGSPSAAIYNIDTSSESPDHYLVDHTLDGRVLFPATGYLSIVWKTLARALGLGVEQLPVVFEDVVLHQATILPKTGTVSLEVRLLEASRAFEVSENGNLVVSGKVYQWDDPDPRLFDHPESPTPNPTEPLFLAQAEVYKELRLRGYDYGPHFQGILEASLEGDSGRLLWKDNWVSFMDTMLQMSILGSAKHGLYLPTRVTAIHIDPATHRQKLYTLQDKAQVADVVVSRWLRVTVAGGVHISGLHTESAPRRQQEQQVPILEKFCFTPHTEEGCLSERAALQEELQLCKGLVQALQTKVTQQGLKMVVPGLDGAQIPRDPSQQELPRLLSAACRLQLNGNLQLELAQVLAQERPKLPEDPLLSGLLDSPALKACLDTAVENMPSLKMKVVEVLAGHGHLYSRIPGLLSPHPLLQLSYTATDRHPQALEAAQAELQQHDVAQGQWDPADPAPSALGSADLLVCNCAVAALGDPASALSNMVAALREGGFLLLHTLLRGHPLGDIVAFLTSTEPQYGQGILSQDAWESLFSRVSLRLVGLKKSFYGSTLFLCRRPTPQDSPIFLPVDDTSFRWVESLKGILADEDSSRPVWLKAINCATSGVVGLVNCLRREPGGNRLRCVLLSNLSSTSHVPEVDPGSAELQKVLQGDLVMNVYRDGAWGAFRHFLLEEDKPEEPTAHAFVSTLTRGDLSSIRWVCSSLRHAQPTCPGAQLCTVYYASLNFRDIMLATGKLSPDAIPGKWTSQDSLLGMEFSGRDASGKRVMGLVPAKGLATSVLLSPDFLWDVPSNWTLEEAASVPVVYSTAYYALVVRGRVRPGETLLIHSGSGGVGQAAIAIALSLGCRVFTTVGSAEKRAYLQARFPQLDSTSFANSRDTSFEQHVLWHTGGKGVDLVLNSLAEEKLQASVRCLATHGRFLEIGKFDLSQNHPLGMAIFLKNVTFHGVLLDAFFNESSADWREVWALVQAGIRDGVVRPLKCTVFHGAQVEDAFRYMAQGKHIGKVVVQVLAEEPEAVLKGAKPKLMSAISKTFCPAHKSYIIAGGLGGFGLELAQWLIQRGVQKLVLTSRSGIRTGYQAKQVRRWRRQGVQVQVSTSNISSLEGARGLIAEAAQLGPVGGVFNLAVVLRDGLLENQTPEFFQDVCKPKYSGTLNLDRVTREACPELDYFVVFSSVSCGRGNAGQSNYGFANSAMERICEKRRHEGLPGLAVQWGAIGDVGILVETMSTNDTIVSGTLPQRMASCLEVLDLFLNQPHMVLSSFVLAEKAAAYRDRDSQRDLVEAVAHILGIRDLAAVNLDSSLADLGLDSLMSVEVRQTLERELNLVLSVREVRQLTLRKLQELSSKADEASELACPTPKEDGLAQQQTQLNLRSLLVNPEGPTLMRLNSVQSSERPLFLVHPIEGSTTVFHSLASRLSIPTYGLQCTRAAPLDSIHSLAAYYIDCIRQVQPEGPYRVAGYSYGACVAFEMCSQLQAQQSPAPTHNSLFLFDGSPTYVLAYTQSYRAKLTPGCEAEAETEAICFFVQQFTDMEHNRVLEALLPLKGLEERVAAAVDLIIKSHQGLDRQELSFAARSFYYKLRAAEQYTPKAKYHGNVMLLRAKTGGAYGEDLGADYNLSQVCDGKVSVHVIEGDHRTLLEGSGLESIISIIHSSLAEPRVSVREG

SMILES | IC50
COc1ccc(-c2ccc(-c3nnnn3C[C@@H]3CCN(C(=O)C4CC4)C3)cc2)c(Cl)c1 [Example 5, 5-[2′-chloro-4′-(methyloxy)-4-biphenylyl]-1-{[(3R)-1-(cyclopropylcarbonyl)-3-pyrrolidinyl]methyl}-1H-tetrazole] | 752 nM
O=C(C1CC1)N1CC[C@@H](Cn2nncc2-c2ccc(-c3ccc4[nH]ncc4c3)cc2)C1 [Example 11, 5-[4-(1-{[(3R)-1-(cyclopropylcarbonyl)-3-pyrrolidinyl]methyl}-1H-1,2,3-triazol-5-yl)phenyl]-1H-indazole] | 40 nM
Cc1nnc(-c2ccc(-c3ccc(Cl)cc3Cl)cc2)n1C[C@@H]1CCN(C(=O)C2CC2)C1 [Example 15, 4-{[(3S)-1-(cyclopropylcarbonyl)-3-pyrrolidinyl]methyl}-3-(2′,4′-dichloro-4-biphenylyl)-5-methyl-4H-1,2,4-triazole] | 596 nM
O=C(C1CC1)N1CC[C@@H](Cn2ccnc2-c2ccc(-c3ccccc3)cc2)C1 [Example 26, 2-(4-biphenylyl)-1-{[(3S)-1-(cyclopropylcarbonyl)-3-pyrrolidinyl]methyl}-1H-imidazole] | 190 nM
O=C(C1CC1)N1CC[C@@H](Cn2ccnc2-c2ccc(-c3ccc4occc4c3)cc2)C1 [Example 34, 2-[4-(1-benzofuran-5-yl)phenyl]-1-{[(3S)-1-(cyclopropylcarbonyl)-3-pyrrolidinyl]methyl}-1H-imidazole] | 23 nM
Cc1nc(-c2ccc(-c3ccc(F)cc3)cc2)n(CC2CCN(C(=O)C3CC3)C2)c1C (stereo not drawn) [Example 41, 1-{[1-(cyclopropylcarbonyl)-3-pyrrolidinyl]methyl}-2-(4′-fluoro-4-biphenylyl)-4,5-dimethyl-1H-imidazole] | 1520 nM
Cc1cnc(-c2ccc(-c3ccc(Cl)cc3Cl)cc2)n1CC1CCN(C(=O)C2CC2)C1 (stereo not drawn) [Example 54, 1-{[1-(cyclopropylcarbonyl)-3-pyrrolidinyl]methyl}-2-(2′,4′-dichloro-4-biphenylyl)-5-methyl-1H-imidazole] | 602 nM
O=C(C1CC1)N1CC[C@@H](Cn2cnnc2-c2ccc(-c3cccc4[nH]ncc34)cc2)C1 [Example 67, 4-[4-(4-{[(3S)-1-(cyclopropylcarbonyl)-3-pyrrolidinyl]methyl}-4H-1,2,4-triazol-3-yl)phenyl]-1H-indazole] | 13 nM
Cn1ccc2cc(-c3ccc(-c4nncn4C[C@@H]4CCN(C(=O)C5CC5)C4)cc3)cnc21 [Example 73, 5-[4-(4-{[(3S)-1-(cyclopropylcarbonyl)-3-pyrrolidinyl]methyl}-4H-1,2,4-triazol-3-yl)phenyl]-1-methyl-1H-pyrrolo[2,3-b]pyridine] | 251 nM
O=C(C1CC1)N1CC[C@@H](Cn2cnnc2-c2ccc(-c3cccc(-c4cc[nH]n4)c3)cc2F)C1 [Example 87, 4-{[(3S)-1-(cyclopropylcarbonyl)-3-pyrrolidinyl]methyl}-3-[3-fluoro-3′-(1H-pyrazol-5-yl)-4-biphenylyl]-4H-1,2,4-triazole] | 63 nM
O=C(C1CC1)N1CC(Cn2cnnc2-c2ccc(-c3ccc4ncccc4c3)cc2F)C1 [Example 96, 6-[4-(4-{[1-(cyclopropylcarbonyl)-3-azetidinyl]methyl}-4H-1,2,4-triazol-3-yl)-3-fluorophenyl]quinoline] | 631 nM
COc1cc(-c2ccc(-c3nncn3C[C@@H]3CCN(C(=O)C4CC4)C3)c(F)c2)ccc1C [Example 98, 4-{[(3S)-1-(cyclopropylcarbonyl)-3-pyrrolidinyl]methyl}-3-[3-fluoro-4′-methyl-3′-(methyloxy)-4-biphenylyl]-4H-1,2,4-triazole] | 200 nM
